Results: PubChem BioAssay AID280 (DTP/NCI, 2004)
Inconclusive results and toxic doses are left out.

Tested on: nude mice, LOX melanoma ip, survival T/C
Assay: NCI In Vivo Anticancer Drug Screen. Data for tumor model Human Amelanotic Melanoma (LOX) (intraperitoneal) in NU/NU BALB/C (nude) mice
Conditions: endpoint: median survival time, schedule: Q04DX003 (ip), higher = longer survival
Procedure: The antitumor activity of compounds was measured in mice bearing transplantable tumors. Survival or tumor size were measured and the results are expressed as the measurement made in the treated group (T) divided by the measurement made in the vehicle treated control group (C). The tumor model used in this assay is Human Amelanotic Melanoma (LOX) (intraperitoneal) in NU/NU BALB/C (nude) mice

[1] = dose: 75.0 mg/kg/injection, vehicle: saline with Tween-80
[2] = dose: 150.0 mg/kg/injection, vehicle: saline with Tween-80

In the case of `O=C(Nc1cccc(Cl)c1)ON1C(=O)C2C(C1=O)C1(Cl)C(Cl)C(Cl)C2(Cl)C1(Cl)Cl` (stereo not given), the T/C [1] is reported as 99 % of control, the T/C [2] is reported as 86 % of control and the T/C (dose: 300.0 mg/kg/injection, vehicle: saline with Tween-80) is reported as 90 % of control. The T/C (dose: 600.0 mg/kg/injection, vehicle: saline with Tween-80) was 101 % of control.

With `CC(CNC(=O)C12CC3CC(CC(C3)C1)C2)NC(=O)C12CC3CC(CC(C3)C1)C2` (stereo not given) the T/C (dose: 25.0 mg/kg/injection, vehicle: DMSO) was 101 % of control, the T/C (dose: 50.0 mg/kg/injection, vehicle: DMSO) was 107 % of control and the T/C (dose: 100.0 mg/kg/injection, vehicle: DMSO) was 101 % of control. For the same compound, the T/C (dose: 200.0 mg/kg/injection, vehicle: DMSO) was 102 % of control.

With `Cn1c2ccccc2c2ccc3c(c21)C(=O)C=CC3=O` the T/C (dose: 9.38 mg/kg/injection, vehicle: saline with Tween-80) was 90 % of control, the T/C (dose: 18.75 mg/kg/injection, vehicle: saline with Tween-80) was 94 % of control and the T/C (dose: 37.5 mg/kg/injection, vehicle: saline with Tween-80) was 88 % of control. For the same compound, the T/C [1] was 112 % of control and the T/C [2] was 100 % of control.

`O=C1CNC(=O)N1CN1CCOCC1` was tested, and the T/C (dose: 150.0 mg/kg/injection, vehicle: Klucel (hydroxypropylcellulose) (HPC)) was 177 % of control and the T/C (dose: 600.0 mg/kg/injection, vehicle: Klucel (hydroxypropylcellulose) (HPC)) was 152 % of control.

`CN1C2C=CC(=O)C1C1C(=O)N(c3ccccc3)C(=O)C12` (stereo not given) was tested, and the T/C (dose: 50.0 mg/kg/injection, vehicle: Klucel (hydroxypropylcellulose) (HPC)) was 100 % of control, the T/C (dose: 100.0 mg/kg/injection, vehicle: Klucel (hydroxypropylcellulose) (HPC)) was 96 % of control and the T/C (dose: 200.0 mg/kg/injection, vehicle: Klucel (hydroxypropylcellulose) (HPC)) was 99 % of control. The T/C (dose: 400.0 mg/kg/injection, vehicle: Klucel (hydroxypropylcellulose) (HPC)) was 100 % of control.

With `CCCSc1nc(COC(=O)NC)c(COC(=O)NC)n1C` the T/C (dose: 30.0 mg/kg/injection, vehicle: saline) was 113 % of control, the T/C (dose: 60.0 mg/kg/injection, vehicle: saline) was 110 % of control and the T/C (dose: 120.0 mg/kg/injection, vehicle: saline) was 90 % of control. For the same compound, the T/C (dose: 240.0 mg/kg/injection, vehicle: saline) was 98 % of control.

`C/C(=N\NC(=O)c1ccccc1O)c1cccc(/C(C)=N/NC(=O)c2ccccc2O)n1` was tested, and the T/C (dose: 50.0 mg/kg/injection, vehicle: saline) was 116 % of control and the T/C (dose: 100.0 mg/kg/injection, vehicle: saline) was 154 % of control.
